Patent US20180207094A1, “IMPROVED TOPICAL KETOPROFEN FORMULATIONS” (Elliptical Therapeutics, LLC, priority 2015, published 2018)

Key:
[1] = reported; cited from earlier work
[2] = tested on: New Zealand rabbits; settings: rabbit, in vivo

C[C@@H](C(=O)O)c1cccc(C(=O)c2ccccc2)c1 (single isomer, unassigned) [R-enantiomer]
anti-inflammatory and antipyretic activities [1]: little or no

C[C@H](C(=O)O)c1cccc(C(=O)c2ccccc2)c1 (single isomer, unassigned) [S-enantiomer]
potency relative to the racemate [1]: approximately twice as potent as the racemate

CCCCCCCCCCCCOS(=O)(=O)[O-].[Na+] [SDS 5%, sodium dodecyl sulfate]
Overall Edema Score [2]: 0.60
Overall Erythema Score [2]: 0.20
